Values joined by “and” are separate entries in the source; they are usually repeats but may differ in a detail not shown here. Equal values may be shown once. Toxic doses and inconclusive results are not listed. Rule as the data show it: active = T/C of 150% or more; inactive = T/C below 125%.
Tested on: L1210 leukemia ip in BDF1 mice, survival T/C
Test: NCI In Vivo Anticancer Drug Screen. Data for tumor model L1210 Leukemia (intraperitoneal) in B6D2F1 (BDF1) mice
Conditions: endpoint: mean survival time, higher = longer survival
In short: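 Tumor was transplanted into mice, which were then dosed with test compound or vehicle alone. Survival was recorded for each group, and the treated figure was expressed relative to the control figure.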

[1] = dose: 100.0 mg/kg/injection, schedule: Q01DX001 (ip), vehicle: other
[2] = dose: 200.0 mg/kg/injection, schedule: Q01DX001 (ip), vehicle: other
[3] = dose: 400.0 mg/kg/injection, schedule: Q01DX001 (ip), vehicle: other
[4] = dose: 100.0 mg/kg/injection, schedule: Q01DX001 (ip), vehicle: saline
[5] = dose: 200.0 mg/kg/injection, schedule: Q01DX001 (ip), vehicle: saline
[6] = dose: 400.0 mg/kg/injection, schedule: Q01DX001 (ip), vehicle: saline
[7] = dose: 100.0 mg/kg/injection, schedule: Q01DX009 (ip), vehicle: saline
[8] = dose: 100.0 mg/kg/injection, schedule: Q04DX003 (ip), vehicle: saline
[9] = dose: 200.0 mg/kg/injection, schedule: Q01DX009 (ip), vehicle: saline
[10] = dose: 200.0 mg/kg/injection, schedule: Q04DX003 (ip), vehicle: saline
[11] = dose: 400.0 mg/kg/injection, schedule: Q04DX003 (ip), vehicle: saline
[12] = dose: 100.0 mg/kg/injection, schedule: Q04DX003 (ip), vehicle: Klucel (hydroxypropylcellulose) (HPC)
[13] = dose: 200.0 mg/kg/injection, schedule: Q04DX003 (ip), vehicle: Klucel (hydroxypropylcellulose) (HPC)
[14] = dose: 400.0 mg/kg/injection, schedule: Q04DX003 (ip), vehicle: Klucel (hydroxypropylcellulose) (HPC)
[15] = dose: 50.0 mg/kg/injection, schedule: Q04DX002 (ip), vehicle: Klucel (hydroxypropylcellulose) (HPC)
[16] = dose: 100.0 mg/kg/injection, schedule: Q04DX002 (ip), vehicle: Klucel (hydroxypropylcellulose) (HPC)
[17] = dose: 50.0 mg/kg/injection, schedule: Q01DX009 (ip), vehicle: saline with Tween-80
[18] = dose: 100.0 mg/kg/injection, schedule: Q01DX009 (ip), vehicle: saline with Tween-80
[19] = dose: 100.0 mg/kg/injection, schedule: Q04DX003 (ip), vehicle: saline with Tween-80
[20] = dose: 200.0 mg/kg/injection, schedule: Q04DX003 (ip), vehicle: saline with Tween-80
[21] = dose: 100.0 mg/kg/injection, schedule: Q01DX001 (ip), vehicle: carboxymethylcellulose (CMC)
[22] = dose: 200.0 mg/kg/injection, schedule: Q01DX001 (ip), vehicle: carboxymethylcellulose (CMC)
[23] = dose: 400.0 mg/kg/injection, schedule: Q01DX001 (ip), vehicle: carboxymethylcellulose (CMC)
[24] = dose: 200.0 mg/kg/injection, schedule: Q01DX009 (ip), vehicle: saline with Tween-80
[25] = dose: 400.0 mg/kg/injection, schedule: Q01DX009 (ip), vehicle: saline with Tween-80
[26] = dose: 25.0 mg/kg/injection, schedule: Q04DX003 (ip), vehicle: saline with Tween-80

Measured: T/C

O=C(N/N=C/C=C/c1ccccc1)c1ccco1
inactive: [1] 87 % of control | [2] 87 % of control | [3] 93 % of control

Cc1cc2c(cc1C)C(=O)C(=O)N2
inactive: dose: 50.0 mg/kg/injection, schedule: Q01DX001 (ip), vehicle: saline 98 % of control | [4] 107 % of control | [5] 104 % of control | [6] 98 % of control

Cc1ccc[n+](CCC(N)=O)c1
inactive: [7] 92 % of control | [8] 102 % of control | [9] 93 % of control | [10] 102 % of control | dose: 400.0 mg/kg/injection, schedule: Q01DX009 (ip), vehicle: saline 97 % of control | [11] 94 % of control

N#Cc1c2ccccc2c(=N)n2ccccc12
inactive: dose: 100.0 mg/kg/injection, schedule: Q01DX001 (ip), vehicle: Klucel (hydroxypropylcellulose) (HPC) 95 % of control | [12] 98 % of control | dose: 200.0 mg/kg/injection, schedule: Q01DX001 (ip), vehicle: Klucel (hydroxypropylcellulose) (HPC) 105 % of control | [13] 104 % of control | dose: 400.0 mg/kg/injection, schedule: Q01DX001 (ip), vehicle: Klucel (hydroxypropylcellulose) (HPC) 95 % of control | [14] 114 % of control

CC1=CC(=O)C(Sc2ccc(C)cc2)=CC1=O
inactive: dose: 75.0 mg/kg/injection, schedule: Q01DX001 (ip), vehicle: other 98 % of control | dose: 150.0 mg/kg/injection, schedule: Q01DX001 (ip), vehicle: other 93 % of control

O=C(NNS(=O)(=O)c1ccccc1)C1Oc2ccccc2O1
inactive: dose: 25.0 mg/kg/injection, schedule: Q04DX002 (ip), vehicle: Klucel (hydroxypropylcellulose) (HPC) 96 % of control | [15] 93 % of control | [16] 101 % of control

Cn1c2ccccc2c2cc[n+]3c(c21)CCCC3
inactive: dose: 5.0 mg/kg/injection, schedule: Q01DX001 (ip), vehicle: saline 108 % of control | dose: 10.0 mg/kg/injection, schedule: Q01DX001 (ip), vehicle: saline 108 % of control | dose: 20.0 mg/kg/injection, schedule: Q01DX001 (ip), vehicle: saline 115 % of control | dose: 40.0 mg/kg/injection, schedule: Q01DX001 (ip), vehicle: saline 115 % of control

CN1CCC=C(C(C)(C)O)C1
inactive: [8] 101 % of control | [10] 100 % of control | [11] 106 % of control

N#CCCCCN1C(=O)c2ccccc2C1=O
inactive: [17] 94 % of control | [18] 94 % of control | [19] 98 % of control | [20] 97 % of control

CCCC1c2ccccc2-c2ccc(C(C)=O)cc21 (centres undefined)
inactive: [21] 97 % of control | [22] 92 % of control | [23] 97 % of control

CN(C)S(=O)(=O)c1ccc(CC(=O)c2ccccc2)cc1
inactive: [21] 115 % of control | [22] 98 % of control | [23] 96 % of control

OCCCNc1nc2ccc(Cl)cc2c2ccccc12
inactive: [12] 116 % of control | [13] 107 % of control | [14] 108 % of control

O=CNc1ccc(O)cc1
inactive: [18] 104 % of control | [24] 108 % of control | [25] 114 % of control

Oc1ccc(C2SC(c3ccc(O)cc3)SC(c3ccc(O)cc3)S2)cc1 (centres undefined)
inactive: [22] 88 % of control | [23] 88 % of control

CCN(CC)CC(=O)NCC(CC)(CCN1CCCCC1)c1cccc2ccccc12 (centres undefined)
inactive: dose: 50.0 mg/kg/injection, schedule: Q04DX003 (ip), vehicle: saline 92 % of control | [7] 114 % of control | [8] 102 % of control | [9] 102 % of control | [10] 97 % of control

ClCC1=Nc2c(Cl)ncnc2NN1
inactive: dose: 6.25 mg/kg/injection, schedule: Q04DX003 (ip), vehicle: saline with Tween-80 94 % of control | dose: 12.5 mg/kg/injection, schedule: Q04DX003 (ip), vehicle: saline with Tween-80 96 % of control | dose: 25.0 mg/kg/injection, schedule: Q01DX001 (ip), vehicle: saline with Tween-80 95 % of control | [26] 91 % of control

Cn1c(Cl)c(C(=O)O)c2ccccc21
inactive: [15] 97 % of control | [16] 97 % of control | dose: 200.0 mg/kg/injection, schedule: Q04DX002 (ip), vehicle: Klucel (hydroxypropylcellulose) (HPC) 101 % of control

NC(CS)C(=O)O (centres undefined)
inactive: [4] 105 % of control | [5] 92 % of control | dose: 250.0 mg/kg/injection, schedule: Q01DX Z (ip), vehicle: other 91 % of control | dose: 250.0 mg/kg/injection, schedule: Q01DX Z (ip), vehicle: saline 102 % of control | [6] 97 % of control | dose: 500.0 mg/kg/injection, schedule: Q01DX Z (ip), vehicle: saline 94 % of control | dose: 1000.0 mg/kg/injection, schedule: Q01DX Z (ip), vehicle: saline 112 % of control

S=C(S)Nc1cccc2ccccc12
inactive: dose: 12.5 mg/kg/injection, schedule: Q01DX009 (ip), vehicle: Klucel (hydroxypropylcellulose) (HPC) 103 % of control | dose: 12.5 mg/kg/injection, schedule: Q04DX003 (ip), vehicle: Klucel (hydroxypropylcellulose) (HPC) 100 % of control | dose: 25.0 mg/kg/injection, schedule: Q01DX009 (ip), vehicle: Klucel (hydroxypropylcellulose) (HPC) 98 % of control | dose: 25.0 mg/kg/injection, schedule: Q04DX003 (ip), vehicle: Klucel (hydroxypropylcellulose) (HPC) 94 % of control | dose: 50.0 mg/kg/injection, schedule: Q01DX009 (ip), vehicle: Klucel (hydroxypropylcellulose) (HPC) 92 % of control | dose: 50.0 mg/kg/injection, schedule: Q04DX003 (ip), vehicle: Klucel (hydroxypropylcellulose) (HPC) 100 % of control | dose: 100.0 mg/kg/injection, schedule: Q01DX009 (ip), vehicle: Klucel (hydroxypropylcellulose) (HPC) 94 % of control | [18] 89 % of control | [12] 98 % of control | [19] 93 % of control and 86 % of control | dose: 200.0 mg/kg/injection, schedule: Q01DX009 (ip), vehicle: Klucel (hydroxypropylcellulose) (HPC) 94 % of control | [24] 88 % of control | [13] 96 % of control | [20] 95 % of control and 86 % of control | dose: 400.0 mg/kg/injection, schedule: Q01DX009 (ip), vehicle: Klucel (hydroxypropylcellulose) (HPC) 99 % of control | [25] 104 % of control | [14] 91 % of control | dose: 400.0 mg/kg/injection, schedule: Q04DX003 (ip), vehicle: saline with Tween-80 101 % of control and 86 % of control

CCOC(=O)C1(C(C)C)OC2(O)C3CCCN3CC(C(C)C)N2C1=O (centres undefined)
inactive: dose: 6.25 mg/kg/injection, schedule: Q01DX009 (ip), vehicle: saline with Tween-80 100 % of control | dose: 12.5 mg/kg/injection, schedule: Q01DX009 (ip), vehicle: saline with Tween-80 113 % of control | dose: 25.0 mg/kg/injection, schedule: Q01DX009 (ip), vehicle: saline with Tween-80 100 % of control | [26] 94 % of control | [17] 103 % of control | dose: 50.0 mg/kg/injection, schedule: Q04DX003 (ip), vehicle: saline with Tween-80 103 % of control | [18] 96 % of control | [19] 94 % of control

CC(C)C(NC(=O)OCc1ccccc1)C(=O)OCc1ccc([N+](=O)[O-])cc1 (centres undefined)
inactive: [1] 90 % of control | [2] 94 % of control | [3] 90 % of control

CCCc1nc2c(=O)n(C3OC(CO)C(O)C3O)cnc2o1 (centres undefined)
inactive: dose: 100.0 mg/kg/injection, schedule: Q01DX005 (ip), vehicle: saline 95 % of control | dose: 200.0 mg/kg/injection, schedule: Q01DX005 (ip), vehicle: saline 91 % of control

Reference: PubChem BioAssay AID248 (DTP/NCI, 2004)
